The data set is described as follows: blood concentration and clearance after injection in tumor-bearing rats. It counts as in vivo, Fischer female rats. The conditions noted are these: high iodine dose (1,344 mgl/mL). The protocol: Contrast-enhanced mammography was performed with a commercial digital mammography system (Senographe 2000D, GE Healthcare) at 49 kVp and 63 mAs with a rhodium target and an extra copper filter of 0.3 mm thickness. These settings were used to shape the x-rays to have optimal energies for iodine. […] Initial studies were performed with high doses of the nano-probe to obtain a vascular image. A pre-contrast image (FIG. 2(a)) and post-contrast images were acquired 1, 5, 10, and 15 minutes after tail vein injection of the nano-probe. […] In the case of an adult human, this would correspond to a dose of about 654 mL of the nano-probe (assuming a blood volume of five liters), which is prohibitively large for use in humans. However, this high dose was used to clearly visualize the blood vessels that the mammography system was capable of detecting.
Another control group was injected with a conventional iodinated agent (iohexol) at an iodine dose equivalent to the high dose of 1,344 mgl/mL of the nano-probe. (See FIG. 7). […] (See FIG. 8).

Molecules are shown by their SMILES.

Take `CC(=O)N(CC(O)CO)c1c(I)c(C(=O)NCC(O)CO)c(I)c(C(=O)NCC(O)CO)c1I` (stereo not shown) [iohexol]: the clearance entry is listed as “rapidly cleared via the kidneys”.

These data come from patent US8642013B2, “Nano-scale contrast agents and methods of use” (priority 2008, dated 2014).
